Assay in all cases: MIC by serial dilution in agar
Common to all, as to type: cell-based

One assay deals with K. pneumoniae T767. Conditions: Klebsiella pneumoniae, Iso-sensitest Agar, 10^4 colony forming units, overnight at 37° C. As to the method: (§1) Minimum Inhibitory concentration (MIC) values of compounds of the invention against E. coli JT425 and DC RTEM, K. Pneumoniae T767 and P. aeruginosa 10662 and K79961. were determined by serial dilution in Iso-sensitest Agar (from Oxoid Ltd., Basingstoke, England). The plates were inoculated with 10^4 colony forming units and incubated overnight at 37° C. The MIC values recorded in Table 1 were the lowest concentration of antibiotic to inhibit growth. Comparative data for Piperacillin which is the compound 6β-[D-2-[(4-ethyl-2,3-dioxopiperazin-1-yl)carbonylamino]-2-phenylacetamido]-penicillanic acid, sodium salt and for the compound 6α-formamido-6β-[D-2-[(4-ethyl-2,3-dioxopiperazin-1-yl)carbonylamino]-2-phenylacetamido]-penicillanic acid, sodium salt (Compound A) disclosed in U.K. GB Pat. No.-2107307B, are also given.

For a further assay, the system named is P. aeruginosa K79961. Conditions: Pseudomonas aeruginosa, Iso-sensitest Agar, 10^4 colony forming units, overnight at 37° C. On the procedure:
as §1

In another assay the test system is E. coli JT 425. Particulars: Escherichia coli, JT425; Iso-sensitest Agar, 10^4 colony forming units, overnight at 37° C. On the procedure:
as §1

The next assay deals with E. coli DC RTEM. Particulars: Escherichia coli. As to the method: as §1
For another assay, the system named is P. aeruginosa 10662. Conditions: Pseudomonas aeruginosa, Iso-sensitest Agar, 10^4 colony forming units, overnight at 37° C. As to the method: as §1

Converted amounts (≈) assume the structure as drawn. Where a name gives a salt, the structure may show the parent alone.

One may read the MIC as the lowest concentration that inhibits growth of the organism. Read a low MIC as greater potency. Consider `CCN1CCN(C(=O)N[C@@H](C(=O)N[C@]2(NC=O)C(=O)N3[C@@H](C(=O)O)[C@](C)(COC(=O)c4ccc(O)c(O)c4)S[C@@H]32)c2ccccc2)C(=O)C1=O` [Example 2, Sodium 6β-[R,2-(4-ethyl-2,3-dioxopiperazin-1-yl)carbonylamino-2-phenylacetamido]-6α-formamido-2β-(3,4-dihydroxybenzoyloxy)methyl-2α-methylpenam-3-carboxylate], for which the MIC in the assay with K. pneumoniae T767 was 0.12 µg/mL; in the assay with P. aeruginosa K79961 it was < 0.03 µg/mL; against E. coli JT 425, 0.5 µg/mL; with E. coli DC RTEM, < 0.03 µg/mL; against P. aeruginosa 10662 it was 0.12 µg/mL.

With `CCN1CCN(C(=O)N[C@@H](C(=O)N[C@]2(NC=O)C(=O)N3[C@@H](C(=O)O)[C@](C)(COC(=O)c4ccc(OC(C)=O)c(OC(C)=O)c4)S[C@@H]32)c2ccccc2)C(=O)C1=O` [Example 1], the MIC in the assay with K. pneumoniae T767 turned out to be 0.12 µg/mL (≈ 0.151 µM); against P. aeruginosa K79961, 0.06 µg/mL (≈ 0.0753 µM); in the assay with E. coli JT 425, 0.5 µg/mL (≈ 0.628 µM); against E. coli DC RTEM, 0.12 µg/mL (≈ 0.151 µM); in the assay with P. aeruginosa 10662 it was 0.25 µg/mL (≈ 0.314 µM).

Turning to `CCN1CCN(C(=O)N[C@@H](C(=O)N[C@]2(NC=O)C(=O)N3[C@@H](C(=O)O)C(C)(C)S[C@@H]32)c2ccccc2)C(=O)C1=O` [Compound A, 6α-formamido-6β-[D-2-[(4-ethyl-2,3-dioxopiperazin-1-yl)carbonylamino]-2-phenylacetamido]-penicillanic acid, sodium salt, reference compound], the minimal inhibitory concentration (MIC) turned out to be 4 µg/mL against K. pneumoniae T767; 2 µg/mL with P. aeruginosa K79961; 8 µg/mL against E. coli JT 425; 4 µg/mL against E. coli DC RTEM; 16 µg/mL against P. aeruginosa 10662.

In the case of `CCN1CCN(C(=O)N[C@@H](C(=O)N[C@@H]2C(=O)N3[C@@H]2S[C@@](C)(COC(=O)c2ccc(OC(C)=O)c(OC(C)=O)c2)[C@@H]3C(=O)O)c2ccccc2)C(=O)C1=O` [Example 3, Sodium 2β-(3,4-diacetoxybenzoyloxy)methyl-6β-[R,2-(4-ethyl-2,3-dioxopiperazin-1-yl)carbonylamino-2-phenylacetamido]-2α-methylpenam-3-carboxylate], the MIC against K. pneumoniae T767 is 0.25 µg/mL; in the assay with P. aeruginosa K79961, < 0.03 µg/mL; against E. coli JT 425 it was 1 µg/mL; in the assay on E. coli DC RTEM, 4 µg/mL; against P. aeruginosa 10662 it was < 0.03 µg/mL.

In the case of `CCN1CCN(C(=O)N[C@@H](C(=O)N[C@@H]2C(=O)N3[C@@H]2SC(C)(C)[C@@H]3C(=O)O)c2ccccc2)C(=O)C1=O` [Piperacillin, 6β-[D-2-[(4-ethyl-2,3-dioxopiperazin-1-yl)carbonylamino]-2-phenylacetamido]-penicillanic acid, sodium salt, reference compound], the MIC was 2 µg/mL in the assay on K. pneumoniae T767; > 0.06 µg/mL in the assay with P. aeruginosa K79961; 16 µg/mL in the assay with E. coli JT 425; > 128 µg/mL against E. coli DC RTEM; 2 µg/mL in the assay on P. aeruginosa 10662.

Values taken from patent US4820701A, “Penam derivatives” (Beecham Group p.l.c., priority 1987, dated 1989).
